Read-outs that look alike come from different tables or passages of the source.
Experiments:
[1] = molecular target: L25A PETNR (Enterobacter cloacae, UniProt P71278, L26A); conditions: for A2 (amplitude of kobs2 out of total absorbance change) / kobs1 / kobs2: pH 7.0; for ΔCp^⧧ / ΔHT0^⧧ / ΔST0^⧧: fit of kobs1 (5–40 °C) to eq 1
[2] = molecular target: L25I PETNR (Enterobacter cloacae, UniProt P71278, L26I); conditions: for kobs1 / A2 (amplitude of kobs2 out of total absorbance change) / kobs2: 10 mM NADPH or 25 mM NADH, pH 7.0; for ΔCp^⧧ / ΔHT0^⧧ / ΔST0^⧧: fit of kobs1 (5–40 °C) to eq 1
L25I PETNR, sequence (P71278 entry or part of it L26I): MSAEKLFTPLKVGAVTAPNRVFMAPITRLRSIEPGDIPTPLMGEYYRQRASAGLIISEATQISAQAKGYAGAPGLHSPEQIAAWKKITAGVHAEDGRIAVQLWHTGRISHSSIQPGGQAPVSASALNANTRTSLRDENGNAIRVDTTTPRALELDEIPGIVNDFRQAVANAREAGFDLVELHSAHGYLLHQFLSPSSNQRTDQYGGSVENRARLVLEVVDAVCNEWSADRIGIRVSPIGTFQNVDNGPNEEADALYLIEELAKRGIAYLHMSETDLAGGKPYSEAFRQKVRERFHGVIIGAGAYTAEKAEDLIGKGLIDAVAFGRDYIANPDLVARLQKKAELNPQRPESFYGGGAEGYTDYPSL

[3] = molecular target: T1, WT PETNR (Enterobacter cloacae, UniProt P71278); assay: pH dependence of FMN reduction of WT PETNR in MTEN buffer; assay type: biochemical, Enterobacter Cloacae PB2; design: made in house
T1 sequence (P71278 entry or part of it): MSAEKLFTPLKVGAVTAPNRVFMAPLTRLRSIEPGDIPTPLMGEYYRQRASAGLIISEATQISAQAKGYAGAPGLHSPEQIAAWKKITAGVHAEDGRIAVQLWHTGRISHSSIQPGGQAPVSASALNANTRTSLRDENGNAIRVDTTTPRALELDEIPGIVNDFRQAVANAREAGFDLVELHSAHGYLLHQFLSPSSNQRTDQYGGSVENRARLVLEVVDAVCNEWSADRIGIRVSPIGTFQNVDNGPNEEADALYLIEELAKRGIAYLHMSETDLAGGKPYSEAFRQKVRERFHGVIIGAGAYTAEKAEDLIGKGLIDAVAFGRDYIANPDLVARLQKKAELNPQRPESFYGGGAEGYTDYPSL
Method: (R)-[4-2H]-NADPH at pH 6, pH 7 and pH9 (A) and the corresponding temperature dependencies of the observed primary kinetic isotope effects (B). The measurements were performed in MTEN buffer (50 mM MES, 25 mM Tris, 25 mM ethanola-mine, and 100 mM NaCl), which has a useful buffering capacity and minimal change in ionic strength over the pH range 6-9 in which PETNR is stable; we attempted testing PETNR in pH 5 as well, but the enzyme is unstable at this pH. The observed rate constants of FMN reduction at pH 7 in MTEN buffer are essentially the same to those measured in 50 mM potassium phosphate buffer, pH 7 and similar observation are valid for the KIEs values (Table S3).The rate of FMN reduction is essentially insensitive to pH across the whole temperature range (5-40 °C), and also that KIEs values are essentially not affected by changes in pH (the rate of FMN reduction by (R)-[4-2H]-NADPH is independent of pH as well across all temperatures studied; see Table S3 for extracted thermodynamic parameters). Although these experiments cannot completely exclude any kinetic […]
of H-transfer and protonation (which would lead to pH-dependent rates) which makes it very likely that the observed rate are reporting directly on the H-transfer step.
Table S3. Extracted Thermodynamic Parameters from pH Dependence Studies.
(kJ mol-1) (J mol-1 K-1) (kJ mol-1 K-1)

[4] = molecular target: T1, WT PETNR; assay: Stopped-flow FMN reduction (reductive half-reaction, hydride transfer) of WT PETNR by coenzyme; conditions: for kobs1 / A2 (amplitude of kobs2 out of total absorbance change) / kobs2: 10 mM NADPH or 25 mM NADH, pH 7.0; for ΔCp^⧧ / ΔHT0^⧧ / ΔST0^⧧: fit of kobs1 (5–40 °C) to eq 1
[5] = 5 °C, 10 mM NADPH or 25 mM NADH
[6] = 10 °C, 10 mM NADPH or 25 mM NADH
[7] = 15 °C, 10 mM NADPH or 25 mM NADH
[8] = 20 °C, 10 mM NADPH or 25 mM NADH
[9] = 25 °C, 50 mM potassium phosphate pH 7.0, 20 μM enzyme, fast phase
[10] = 25 °C, 10 mM NADPH or 25 mM NADH
[11] = 30 °C, 10 mM NADPH or 25 mM NADH
[12] = 35 °C, 10 mM NADPH or 25 mM NADH
[13] = 40 °C, third phase, 10 mM NADPH or 25 mM NADH
[14] = 40 °C, 10 mM NADPH or 25 mM NADH
[15] = 25 °C, 50 mM potassium phosphate pH 7.0, 20 μM enzyme
[16] = deuterated minus protiated coenzyme, T0 = 298 K

L25A PETNR, sequence (P71278 entry or part of it L26A): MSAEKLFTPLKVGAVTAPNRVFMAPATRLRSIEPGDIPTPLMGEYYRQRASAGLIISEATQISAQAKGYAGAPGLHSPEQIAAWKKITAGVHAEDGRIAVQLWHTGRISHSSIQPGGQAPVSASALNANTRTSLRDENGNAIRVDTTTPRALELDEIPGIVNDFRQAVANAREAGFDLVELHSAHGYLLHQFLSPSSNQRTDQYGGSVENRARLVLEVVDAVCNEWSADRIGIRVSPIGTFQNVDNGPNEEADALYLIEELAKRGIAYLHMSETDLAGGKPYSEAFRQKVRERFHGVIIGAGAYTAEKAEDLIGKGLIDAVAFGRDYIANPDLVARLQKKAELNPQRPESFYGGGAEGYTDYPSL

NC(=O)C1=CN([C@@H]2O[C@H](COP(=O)(O)OP(=O)(O)OC[C@H]3O[C@@H](n4cnc5c(N)ncnc54)[C@H](OP(=O)(O)O)[C@@H]3O)[C@@H](O)[C@H]2O)C=CC1 [NADPH]
A2 (amplitude of kobs2 out of total absorbance change) [1, 5]: 2.93 ± 0.55%
kobs1 [1, 5]: 19.18 ± 0.22 s⁻¹
A2 (amplitude of kobs2 out of total absorbance change) [1, 6]: 2.70 ± 0.56%
kobs1 [1, 6]: 26.03 ± 0.17 s⁻¹
kobs1 [1, 7]: 34.93 ± 1.25 s⁻¹
A2 (amplitude of kobs2 out of total absorbance change) [1, 8]: 3.58 ± 0.47%
kobs2 [1, 8]: 2.42 ± 0.48 s⁻¹
increase in KS vs WT PETNR ([1]; 25 °C): 2 fold
kred [1, 9]: 55.75 ± 0.35 s^–1
rate of H-transfer, faster than WT PETNR ([1]; 25 °C, kred vs WT): 60%
A2 (amplitude of kobs2 out of total absorbance change) [1, 10]: 4.73 ± 0.26%
kobs1 [1, 10]: 53.77 ± 1.15 s⁻¹
kobs2 [1, 10]: 1.54 ± 0.45 s⁻¹
A2 (amplitude of kobs2 out of total absorbance change) [1, 11]: 7.50 ± 0.21%
kobs1 [1, 11]: 59.63 ± 2.29 s⁻¹
A2 (amplitude of kobs2 out of total absorbance change) [1, 12]: 16.48 ± 0.53%
kobs1 [1, 12]: 68.39 ± 8.69 s⁻¹
kobs2 [1, 12]: 0.51 ± 0.17 s⁻¹
A3 (amplitude of third phase) [1, 13]: 19.34 ± 0.54%
kobs3 [1, 13]: 3.55 ± 1.03
A2 (amplitude of kobs2 out of total absorbance change) [1, 14]: 25.54 ± 0.91%
kobs1 [1, 14]: 71.16 ± 6.56 s⁻¹
kobs2 [1, 14]: 0.26 ± 0.06 s⁻¹
total absorbance change attributed to kobs2 ([1]; 40 °C, sum of two slow phases (kobs2 and kobs3)): ~40%
ΔCp^⧧ ([1]; T0 = 298 K): –0.92 ± 0.12 kJ mol^–1 K^–1
ΔHT0^⧧ ([1]; T0 = 298 K): 23.3 ± 1.2 kJ mol^–1
ΔST0^⧧ ([1]; T0 = 298 K): –133.7 ± 4.1 J mol^–1 K^–1
kobs1 ([2]; 5 °C): 10.12 ± 0.04 s⁻¹
kobs1 ([2]; 10 °C): 13.47 ± 0.06 s⁻¹
kobs1 ([2]; 15 °C): 18.07 ± 0.05 s⁻¹
A2 (amplitude of kobs2 out of total absorbance change) ([2]; 20 °C): 3.28 ± 1.62%
kobs1 ([2]; 20 °C): 24.33 ± 0.52 s⁻¹
kobs2 ([2]; 20 °C): 2.25 ± 2.63 s⁻¹
KS [2, 15]: 130 ± 8 µM
kred [2, 9]: 29.49 ± 0.49 s^–1
kobs1 ([2]; 25 °C): 30.24 ± 0.42 s⁻¹
kobs1 ([2]; 30 °C): 36.74 ± 0.28 s⁻¹
kobs2 ([2]; 30 °C): 2.57 ± 0.62 s⁻¹
A2 (amplitude of kobs2 out of total absorbance change) ([2]; 35 °C): 5.72 ± 0.36%
A2 (amplitude of kobs2 out of total absorbance change) ([2]; 40 °C): 10.89 ± 0.63%
kobs1 ([2]; 40 °C): 49.82 ± 1.14 s⁻¹
ΔCp^⧧ ([2]; T0 = 298 K): –0.43 ± 0.07 kJ mol^–1 K^–1
ΔHT0^⧧ ([2]; T0 = 298 K): 30.4 ± 0.6 kJ mol^–1
ΔST0^⧧ ([2]; T0 = 298 K): –114.9 ± 2.0 J mol^–1 K^–1
ΔCp⧧ ([3]; pH 6, MTEN buffer): -0.58 ± 0.10 kJ mol-1 K-1
ΔHT0⧧ ([3]; pH 6, MTEN buffer): 6.5 ± 0.14 kcal/mol
ΔST0⧧ ([3]; pH 6, MTEN buffer): -124.3 ± 2.0 J mol-1 K-1
ΔCp⧧ ([3]; pH 7, MTEN buffer): -0.61 ± 0.08 kJ mol-1 K-1
ΔHT0⧧ ([3]; pH 7, MTEN buffer): 6.6 ± 0.17 kcal/mol
ΔST0⧧ ([3]; pH 7, MTEN buffer): -122.7 ± 1.6 J mol-1 K-1
ΔCp⧧ ([3]; pH 9, MTEN buffer): -0.45 ± 0.12 kJ mol-1 K-1
ΔHT0⧧ ([3]; pH 9, MTEN buffer): 6.91 ± 0.17 kcal/mol
ΔST0⧧ ([3]; pH 9, MTEN buffer): -118.6 ± 2.3 J mol-1 K-1
kobs1 ([4]; 5 °C): 11.31 ± 0.09 s⁻¹
kobs1 ([4]; 10 °C): 15.23 ± 0.15 s⁻¹
kobs1 ([4]; 15 °C): 20.32 ± 0.25 s⁻¹
kobs1 ([4]; 20 °C): 26.28 ± 0.31 s⁻¹
KS [4, 15]: 103 ± 4 µM
kred [4, 9]: 33.43 ± 0.22 s^–1
kobs1 ([4]; 25 °C): 33.74 ± 0.46 s⁻¹
A2 (amplitude of kobs2 out of total absorbance change) ([4]; 35 °C): 1.41 ± 0.23%
kobs1 ([4]; 35 °C): 50.46 ± 0.75 s⁻¹
kobs2 ([4]; 35 °C): 1.19 ± 0.92 s⁻¹
A2 (amplitude of kobs2 out of total absorbance change) ([4]; 40 °C): 2.29 ± 0.35%
kobs1 ([4]; 40 °C): 58.49 ± 0.50 s⁻¹
kobs2 ([4]; 40 °C): 1.09 ± 0.16 s⁻¹
ΔCp^⧧ ([4]; T0 = 298 K): –0.50 ± 0.05 kJ mol^–1 K^–1
ΔHT0^⧧ ([4]; T0 = 298 K): 30.4 ± 0.3 kJ mol^–1
ΔST0^⧧ ([4]; T0 = 298 K): –113.9 ± 0.9 J mol^–1 K^–1

[2H][C@@H]1C=CN([C@@H]2O[C@H](COP(=O)(O)OP(=O)(O)OC[C@H]3O[C@@H](n4cnc5c(N)ncnc54)[C@H](O)[C@@H]3O)[C@@H](O)[C@H]2O)C=C1C(N)=O [(R)-[4-^2H]-NADH]
kobs1 [1, 5]: 0.162 ± 0.002 s⁻¹
kobs1 [1, 6]: 0.211 ± 0.002 s⁻¹
kobs1 [1, 7]: 0.275 ± 0.004 s⁻¹
kobs1 [1, 8]: 0.360 ± 0.004 s⁻¹
kobs1 [1, 10]: 0.495 ± 0.002 s⁻¹
kobs1 [1, 11]: 0.612 ± 0.042 s⁻¹
A2 (amplitude of kobs2 out of total absorbance change) [1, 12]: 15.60 ± 2.69%
kobs1 [1, 12]: 0.885 ± 0.018 s⁻¹
kobs2 [1, 12]: 0.11 ± 0.03 s⁻¹
A2 (amplitude of kobs2 out of total absorbance change) [1, 14]: 34.60 ± 0.91%
kobs1 [1, 14]: 1.070 ± 0.054 s⁻¹
kobs2 [1, 14]: 0.17 ± 0.01 s⁻¹
ΔCp^⧧ ([1]; T0 = 298 K): 0.42 ± 0.14 kJ mol^–1 K^–1
ΔHT0^⧧ ([1]; T0 = 298 K): 40.3 ± 1.1 kJ mol^–1
ΔST0^⧧ ([1]; T0 = 298 K): –115.7 ± 3.8 J mol^–1 K^–1
Isotope Effect on ΔCp^⧧ [1, 16]: 0.13 ± 0.15 kJ mol^–1 K^–1
Isotope Effect on ΔHT0^⧧ [1, 16]: 6.6 ± 1.2 kJ mol^–1
Isotope Effect on ΔST0^⧧ [1, 16]: 6.4 ± 4.2 J mol^–1 K^–1
kobs1 ([2]; 5 °C): 0.062 ± 0.001 s⁻¹
kobs1 ([2]; 10 °C): 0.083 ± 0.001 s⁻¹
kobs1 ([2]; 20 °C): 0.160 ± 0.001 s⁻¹
kobs1 ([2]; 25 °C): 0.223 ± 0.003 s⁻¹
kobs1 ([2]; 30 °C): 0.306 ± 0.005 s⁻¹
kobs1 ([2]; 35 °C): 0.418 ± 0.001 s⁻¹
kobs1 ([2]; 40 °C): 0.604 ± 0.066 s⁻¹
ΔCp^⧧ ([2]; T0 = 298 K): 0.30 ± 0.07 kJ mol^–1 K^–1
ΔHT0^⧧ ([2]; T0 = 298 K): 44.9 ± 0.2 kJ mol^–1
ΔST0^⧧ ([2]; T0 = 298 K): –106.8 ± 0.8 J mol^–1 K^–1
Isotope Effect on ΔCp^⧧ [2, 16]: –0.03 ± 0.19 kJ mol^–1 K^–1
Isotope Effect on ΔHT0^⧧ [2, 16]: 2.3 ± 1.8 kJ mol^–1
Isotope Effect on ΔST0^⧧ [2, 16]: –9.2 ± 6.0 J mol^–1 K^–1
kobs1 ([4]; 5 °C): 0.091 ± 0.001 s⁻¹
kobs1 ([4]; 15 °C): 0.156 ± 0.001 s⁻¹
kobs1 ([4]; 20 °C): 0.204 ± 0.002 s⁻¹
kobs1 ([4]; 25 °C): 0.274 ± 0.001 s⁻¹
kobs1 ([4]; 30 °C): 0.366 ± 0.002 s⁻¹
kobs1 ([4]; 35 °C): 0.499 ± 0.011 s⁻¹
kobs1 ([4]; 40 °C): 0.673 ± 0.005 s⁻¹
ΔCp^⧧ ([4]; T0 = 298 K): 0.46 ± 0.02 kJ mol^–1 K^–1
ΔHT0^⧧ ([4]; T0 = 298 K): 40.3 ± 0.1 kJ mol^–1
ΔST0^⧧ ([4]; T0 = 298 K): –120.4 ± 0.5 J mol^–1 K^–1
Isotope Effect on ΔCp^⧧ [4, 16]: 0.07 ± 0.04 kJ mol^–1 K^–1
Isotope Effect on ΔHT0^⧧ (ΔΔHT0^⧧) [4, 16]: 4.9 ± 0.2 kJ mol^–1
Isotope Effect on ΔST0^⧧ [4, 16]: 0.1 ± 0.7 J mol^–1 K^–1

Source: paper PMC6516726 (ACS Catalysis, 2018)
